Source: ChEMBL document CHEMBL3991601, “The target landscape of clinical kinase drugs” (Science, 2017)
The source made the active and inactive calls. For most assays here, no stated cut-off is given here; in the data, actives have a measured Kd and inactives only a lower limit.

Tests used:
[1] = molecular target: Receptor-interacting serine/threonine-protein kinase 2 (Homo sapiens, UniProt O43353)
Ephrin type-A receptor 4 = Ephrin type-A receptor 4 (Homo sapiens, UniProt P54764)
[2] = molecular target: T1, Acyl-CoA dehydrogenase family member 11 (Homo sapiens, UniProt Q709F0)
T1 sequence (Q709F0 whole entry): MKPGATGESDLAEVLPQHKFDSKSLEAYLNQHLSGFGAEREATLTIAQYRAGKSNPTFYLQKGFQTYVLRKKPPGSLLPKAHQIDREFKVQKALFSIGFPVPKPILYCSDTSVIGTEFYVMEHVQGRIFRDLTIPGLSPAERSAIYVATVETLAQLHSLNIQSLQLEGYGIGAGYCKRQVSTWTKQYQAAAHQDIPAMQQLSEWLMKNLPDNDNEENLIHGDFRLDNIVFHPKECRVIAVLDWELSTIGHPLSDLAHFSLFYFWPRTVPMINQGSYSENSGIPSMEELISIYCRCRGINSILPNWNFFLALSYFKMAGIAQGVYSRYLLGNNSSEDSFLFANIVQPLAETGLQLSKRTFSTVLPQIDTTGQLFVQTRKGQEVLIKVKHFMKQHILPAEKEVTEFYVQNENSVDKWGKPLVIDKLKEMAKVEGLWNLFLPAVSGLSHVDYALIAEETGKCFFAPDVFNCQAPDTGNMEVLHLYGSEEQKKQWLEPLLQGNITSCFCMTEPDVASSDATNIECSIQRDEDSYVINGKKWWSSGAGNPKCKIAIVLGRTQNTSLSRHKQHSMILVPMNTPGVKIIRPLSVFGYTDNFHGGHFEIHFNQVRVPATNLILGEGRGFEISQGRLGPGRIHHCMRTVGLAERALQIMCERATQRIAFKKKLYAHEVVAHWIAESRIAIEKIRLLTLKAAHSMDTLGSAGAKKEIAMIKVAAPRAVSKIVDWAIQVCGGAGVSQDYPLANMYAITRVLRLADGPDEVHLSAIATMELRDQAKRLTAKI

Scaffold protein ILK = molecular target: T2, Scaffold protein ILK (Homo sapiens, UniProt Q13418)
T2 sequence (Q13418 whole entry): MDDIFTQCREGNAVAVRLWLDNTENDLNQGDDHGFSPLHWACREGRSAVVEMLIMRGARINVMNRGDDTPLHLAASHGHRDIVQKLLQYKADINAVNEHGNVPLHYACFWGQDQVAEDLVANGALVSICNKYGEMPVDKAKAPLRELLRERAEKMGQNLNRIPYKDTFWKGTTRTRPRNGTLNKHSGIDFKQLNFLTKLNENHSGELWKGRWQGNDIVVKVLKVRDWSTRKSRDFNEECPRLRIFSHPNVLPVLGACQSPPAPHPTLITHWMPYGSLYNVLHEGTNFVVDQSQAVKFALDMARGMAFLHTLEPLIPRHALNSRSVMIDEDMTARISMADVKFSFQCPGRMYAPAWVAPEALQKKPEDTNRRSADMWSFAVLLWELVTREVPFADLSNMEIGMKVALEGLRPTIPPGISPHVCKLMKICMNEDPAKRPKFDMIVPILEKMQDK

[3] = molecular target: T3, Inhibitor of nuclear factor kappa-B kinase subunit epsilon (Homo sapiens, UniProt Q14164)
T3 sequence (Q14164 whole entry): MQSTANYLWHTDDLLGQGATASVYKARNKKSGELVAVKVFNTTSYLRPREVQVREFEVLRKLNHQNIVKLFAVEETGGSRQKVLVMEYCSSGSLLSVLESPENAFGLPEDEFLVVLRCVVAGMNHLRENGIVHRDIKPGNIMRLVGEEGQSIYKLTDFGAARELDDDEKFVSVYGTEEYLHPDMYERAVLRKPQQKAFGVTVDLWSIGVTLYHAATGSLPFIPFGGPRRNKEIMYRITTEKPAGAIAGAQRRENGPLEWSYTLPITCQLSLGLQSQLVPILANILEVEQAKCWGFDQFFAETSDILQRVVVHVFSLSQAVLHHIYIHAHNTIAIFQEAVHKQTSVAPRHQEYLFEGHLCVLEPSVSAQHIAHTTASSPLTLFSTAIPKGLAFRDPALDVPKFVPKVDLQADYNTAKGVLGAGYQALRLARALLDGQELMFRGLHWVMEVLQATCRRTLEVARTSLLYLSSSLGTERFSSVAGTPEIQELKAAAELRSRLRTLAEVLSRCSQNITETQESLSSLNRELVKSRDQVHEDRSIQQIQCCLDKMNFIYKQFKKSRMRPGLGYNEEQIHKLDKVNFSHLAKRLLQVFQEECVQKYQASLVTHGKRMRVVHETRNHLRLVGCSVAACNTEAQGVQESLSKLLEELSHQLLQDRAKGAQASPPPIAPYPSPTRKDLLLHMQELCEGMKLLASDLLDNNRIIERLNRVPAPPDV

ADP/ATP translocase 3 = molecular target: T4, ADP/ATP translocase 3 (Homo sapiens, UniProt P12236)
T4 sequence (P12236 whole entry): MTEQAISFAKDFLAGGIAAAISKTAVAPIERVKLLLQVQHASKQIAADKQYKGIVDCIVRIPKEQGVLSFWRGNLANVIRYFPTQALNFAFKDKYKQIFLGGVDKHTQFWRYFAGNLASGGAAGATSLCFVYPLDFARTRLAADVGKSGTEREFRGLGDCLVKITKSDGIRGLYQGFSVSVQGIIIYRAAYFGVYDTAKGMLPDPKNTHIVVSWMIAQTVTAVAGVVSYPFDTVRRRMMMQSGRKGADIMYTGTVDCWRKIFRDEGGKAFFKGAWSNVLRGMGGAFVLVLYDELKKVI

[4] = molecular target: MAP kinase-activated protein kinase 2 (Homo sapiens, UniProt P49137)
Chain of MAP kinase-activated protein kinase 2 (P49137 whole entry): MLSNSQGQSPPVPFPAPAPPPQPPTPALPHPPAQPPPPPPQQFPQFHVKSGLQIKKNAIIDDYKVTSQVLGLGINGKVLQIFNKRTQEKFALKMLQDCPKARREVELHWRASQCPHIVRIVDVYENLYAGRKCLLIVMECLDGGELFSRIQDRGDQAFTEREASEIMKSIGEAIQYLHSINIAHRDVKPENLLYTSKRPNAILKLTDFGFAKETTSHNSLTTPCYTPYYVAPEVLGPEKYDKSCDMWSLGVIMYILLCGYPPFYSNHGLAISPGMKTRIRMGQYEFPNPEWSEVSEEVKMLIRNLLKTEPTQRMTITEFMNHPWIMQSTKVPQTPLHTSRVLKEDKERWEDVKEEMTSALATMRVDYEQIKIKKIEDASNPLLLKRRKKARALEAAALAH

[5] = molecular target: Protein kinase C delta type (Homo sapiens, UniProt Q05655)
Chain of Protein kinase C delta type (Q05655 whole entry): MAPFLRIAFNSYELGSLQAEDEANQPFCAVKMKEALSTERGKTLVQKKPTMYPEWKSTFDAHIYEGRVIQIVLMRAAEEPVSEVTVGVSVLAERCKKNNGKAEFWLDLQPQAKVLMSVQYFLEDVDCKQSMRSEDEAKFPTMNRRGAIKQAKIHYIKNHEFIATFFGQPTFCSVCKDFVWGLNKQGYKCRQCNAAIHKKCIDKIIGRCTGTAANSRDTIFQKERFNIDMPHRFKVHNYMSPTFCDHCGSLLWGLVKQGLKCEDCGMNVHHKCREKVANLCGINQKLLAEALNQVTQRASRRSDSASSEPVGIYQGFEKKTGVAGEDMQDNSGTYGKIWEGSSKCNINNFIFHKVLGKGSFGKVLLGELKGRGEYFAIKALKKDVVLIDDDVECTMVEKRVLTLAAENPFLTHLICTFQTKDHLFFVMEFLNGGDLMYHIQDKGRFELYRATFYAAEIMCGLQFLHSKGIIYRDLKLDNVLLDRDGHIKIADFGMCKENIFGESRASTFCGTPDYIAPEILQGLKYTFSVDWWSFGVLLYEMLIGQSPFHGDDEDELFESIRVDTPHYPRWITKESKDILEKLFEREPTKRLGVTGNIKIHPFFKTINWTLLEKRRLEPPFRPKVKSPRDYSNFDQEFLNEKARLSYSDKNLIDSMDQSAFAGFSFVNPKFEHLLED

[6] = molecular target: Serine/threonine-protein kinase 16 (Homo sapiens, UniProt O75716)
Chain of Serine/threonine-protein kinase 16 (O75716 whole entry): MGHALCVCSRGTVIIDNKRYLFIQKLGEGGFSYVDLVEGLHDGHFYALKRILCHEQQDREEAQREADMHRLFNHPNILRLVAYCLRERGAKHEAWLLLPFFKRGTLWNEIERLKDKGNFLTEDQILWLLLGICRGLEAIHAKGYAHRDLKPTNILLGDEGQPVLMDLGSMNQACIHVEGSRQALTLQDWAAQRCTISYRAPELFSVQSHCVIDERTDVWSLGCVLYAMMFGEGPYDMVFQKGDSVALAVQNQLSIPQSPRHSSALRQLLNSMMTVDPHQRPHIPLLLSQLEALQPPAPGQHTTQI

[7] = molecular target: Cyclin-dependent kinase 13 (Homo sapiens, UniProt Q14004)
Chain of Cyclin-dependent kinase 13 (Q14004 whole entry): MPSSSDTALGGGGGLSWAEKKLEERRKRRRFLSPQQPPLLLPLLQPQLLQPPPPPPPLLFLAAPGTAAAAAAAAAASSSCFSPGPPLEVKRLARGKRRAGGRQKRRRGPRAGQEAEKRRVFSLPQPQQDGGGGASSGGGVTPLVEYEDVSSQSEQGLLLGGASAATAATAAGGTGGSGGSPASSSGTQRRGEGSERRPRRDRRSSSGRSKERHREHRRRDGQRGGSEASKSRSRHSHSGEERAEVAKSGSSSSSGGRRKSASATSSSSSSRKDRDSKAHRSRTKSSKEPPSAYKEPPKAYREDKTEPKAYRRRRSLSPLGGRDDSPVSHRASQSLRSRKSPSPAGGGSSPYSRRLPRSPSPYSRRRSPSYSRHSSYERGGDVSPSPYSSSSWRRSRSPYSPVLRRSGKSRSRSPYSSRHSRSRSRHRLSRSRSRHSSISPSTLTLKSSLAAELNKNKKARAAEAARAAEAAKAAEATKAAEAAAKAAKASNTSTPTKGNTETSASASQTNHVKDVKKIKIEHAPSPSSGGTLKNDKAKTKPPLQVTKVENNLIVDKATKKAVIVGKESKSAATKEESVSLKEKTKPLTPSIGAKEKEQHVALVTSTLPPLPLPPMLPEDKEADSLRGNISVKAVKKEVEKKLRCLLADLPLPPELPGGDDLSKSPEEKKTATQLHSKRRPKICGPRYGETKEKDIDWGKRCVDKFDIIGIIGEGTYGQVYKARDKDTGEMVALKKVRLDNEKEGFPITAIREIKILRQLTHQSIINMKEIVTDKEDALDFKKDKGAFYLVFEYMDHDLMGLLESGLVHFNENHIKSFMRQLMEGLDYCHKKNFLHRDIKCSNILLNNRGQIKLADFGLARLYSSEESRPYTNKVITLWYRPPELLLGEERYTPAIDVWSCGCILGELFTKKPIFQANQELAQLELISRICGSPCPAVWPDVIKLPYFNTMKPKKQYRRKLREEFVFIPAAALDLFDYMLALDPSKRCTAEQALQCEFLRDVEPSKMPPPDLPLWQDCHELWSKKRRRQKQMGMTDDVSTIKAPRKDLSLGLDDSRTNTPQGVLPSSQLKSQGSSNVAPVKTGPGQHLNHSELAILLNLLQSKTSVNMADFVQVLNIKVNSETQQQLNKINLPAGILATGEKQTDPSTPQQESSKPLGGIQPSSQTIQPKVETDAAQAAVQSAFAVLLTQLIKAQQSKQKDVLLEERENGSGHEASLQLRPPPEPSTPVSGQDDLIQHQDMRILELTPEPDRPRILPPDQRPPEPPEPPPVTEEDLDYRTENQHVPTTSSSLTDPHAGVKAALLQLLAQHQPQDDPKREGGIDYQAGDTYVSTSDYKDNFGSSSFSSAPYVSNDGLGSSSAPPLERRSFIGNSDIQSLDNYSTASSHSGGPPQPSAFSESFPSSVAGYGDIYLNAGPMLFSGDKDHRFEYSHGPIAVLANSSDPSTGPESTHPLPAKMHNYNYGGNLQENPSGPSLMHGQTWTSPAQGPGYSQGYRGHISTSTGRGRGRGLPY

Chain of Receptor-interacting serine/threonine-protein kinase 2 (O43353 whole entry): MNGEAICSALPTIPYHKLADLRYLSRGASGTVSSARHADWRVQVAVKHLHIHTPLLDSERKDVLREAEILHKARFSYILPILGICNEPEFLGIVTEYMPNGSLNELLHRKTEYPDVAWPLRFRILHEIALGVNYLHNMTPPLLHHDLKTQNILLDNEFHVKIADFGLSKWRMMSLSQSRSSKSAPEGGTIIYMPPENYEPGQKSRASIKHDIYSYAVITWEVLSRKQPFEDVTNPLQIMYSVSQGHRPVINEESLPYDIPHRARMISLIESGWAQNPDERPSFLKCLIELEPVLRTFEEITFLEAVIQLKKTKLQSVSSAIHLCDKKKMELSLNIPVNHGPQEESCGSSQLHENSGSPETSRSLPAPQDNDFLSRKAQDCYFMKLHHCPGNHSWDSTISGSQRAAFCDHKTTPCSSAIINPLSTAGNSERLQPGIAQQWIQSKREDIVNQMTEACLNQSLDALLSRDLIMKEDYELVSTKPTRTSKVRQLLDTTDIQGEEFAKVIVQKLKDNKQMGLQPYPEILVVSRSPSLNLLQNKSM
Chain of Ephrin type-A receptor 4 (P54764 whole entry): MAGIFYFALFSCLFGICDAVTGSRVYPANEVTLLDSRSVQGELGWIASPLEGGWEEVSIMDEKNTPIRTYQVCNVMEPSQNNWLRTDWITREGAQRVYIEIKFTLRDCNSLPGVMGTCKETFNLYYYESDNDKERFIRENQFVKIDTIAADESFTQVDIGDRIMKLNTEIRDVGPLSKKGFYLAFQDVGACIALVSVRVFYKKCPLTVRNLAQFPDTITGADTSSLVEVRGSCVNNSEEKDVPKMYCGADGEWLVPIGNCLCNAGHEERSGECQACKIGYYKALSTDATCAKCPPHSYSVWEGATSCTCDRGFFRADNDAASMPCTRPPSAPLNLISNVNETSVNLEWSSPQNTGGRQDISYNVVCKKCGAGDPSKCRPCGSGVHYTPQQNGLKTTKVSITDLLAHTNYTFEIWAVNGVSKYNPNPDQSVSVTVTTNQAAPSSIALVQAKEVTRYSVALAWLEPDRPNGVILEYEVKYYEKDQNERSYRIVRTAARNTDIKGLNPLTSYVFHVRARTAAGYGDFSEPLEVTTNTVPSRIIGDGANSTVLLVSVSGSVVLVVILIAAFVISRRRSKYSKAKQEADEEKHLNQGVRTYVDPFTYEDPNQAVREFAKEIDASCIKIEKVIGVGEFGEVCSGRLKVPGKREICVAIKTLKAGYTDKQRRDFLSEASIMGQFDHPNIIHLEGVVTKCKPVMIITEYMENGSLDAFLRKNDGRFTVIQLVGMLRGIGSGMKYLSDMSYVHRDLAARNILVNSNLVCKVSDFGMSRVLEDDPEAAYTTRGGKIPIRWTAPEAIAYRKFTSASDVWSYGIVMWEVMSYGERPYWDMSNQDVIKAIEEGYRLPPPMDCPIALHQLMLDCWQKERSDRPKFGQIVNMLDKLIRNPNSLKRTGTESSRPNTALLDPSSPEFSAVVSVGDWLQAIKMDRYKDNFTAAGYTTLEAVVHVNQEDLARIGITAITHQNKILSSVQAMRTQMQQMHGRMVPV

Kd [1] | Kd (Ephrin type-A receptor 4) | Kd [2] | Kd (Scaffold protein ILK) | Kd [3] | Kd (ADP/ATP translocase 3) | Kd [4] | Kd [5] | Kd [6] | Kd [7] | SMILES
> 30 µM (inactive) | > 30 µM (inactive) | > 30 µM (inactive) | > 30 µM (inactive) | > 30 µM (inactive) | > 30 µM (inactive) | > 30 µM (inactive) | 1.74 µM (active) | > 30 µM (inactive) | > 30 µM (inactive) | COc1cccc(Nc2ncnn3ccc(CN4CC[C@@H](N)[C@H](O)C4)c23)c1 [BMS-690514]
5.94 µM (active) | > 30 µM (inactive) | > 30 µM (inactive) | > 30 µM (inactive) | > 30 µM (inactive) | > 30 µM (inactive) | > 30 µM (inactive) | > 30 µM (inactive) | > 30 µM (inactive) | > 30 µM (inactive) | COc1cc2ncnc(Nc3ccc(O)cc3)c2cc1OC [WHI-P131]
> 30 µM (inactive) | > 30 µM (inactive) | > 30 µM (inactive) | > 30 µM (inactive) | > 30 µM (inactive) | > 30 µM (inactive) | > 30 µM (inactive) | > 30 µM (inactive) | > 30 µM (inactive) | > 30 µM (inactive) | Cc1ccc(C(=O)Nc2ccc(Oc3cc4cnn(C)c4cc3-c3cn[nH]c3)c(F)c2)c(=O)n1-c1ccc(F)cc1 [MERESTINIB]
0.192 µM (active) | 1.93 µM | > 30 µM (inactive) | > 30 µM (inactive) | > 30 µM (inactive) | > 30 µM (inactive) | > 30 µM (inactive) | > 30 µM (inactive) | > 30 µM (inactive) | > 30 µM (inactive) | Cc1cc(-c2cc(OC(=O)c3ccccc3)ccc2Cl)cc2nnc(Nc3ccc(OCCN4CCCC4)cc3)nc12 [TG100-801]
1.16 µM (active) | > 30 µM (inactive) | > 30 µM (inactive) | > 30 µM (inactive) | > 30 µM (inactive) | > 30 µM (inactive) | > 30 µM (inactive) | > 30 µM (inactive) | > 30 µM (inactive) | > 30 µM (inactive) | COc1cccc2cc(-c3nc([C@H]4CC[C@H](C(=O)O)CC4)n4ncnc(N)c34)[nH]c12 [OSI-027]
> 30 µM (inactive) | > 30 µM (inactive) | > 30 µM (inactive) | > 30 µM (inactive) | > 30 µM (inactive) | > 30 µM (inactive) | > 30 µM (inactive) | > 30 µM (inactive) | > 30 µM (inactive) | > 30 µM (inactive) | Cc1cc(C(=O)Nc2cc(Oc3ccc4nc(NC(=O)C5CC5)cn4n3)ccc2C)n(C)n1 [TAK-593]
> 30 µM (inactive) | > 30 µM (inactive) | > 30 µM (inactive) | > 30 µM (inactive) | > 30 µM (inactive) | > 30 µM (inactive) | 0.0003 µM (active) | > 30 µM (inactive) | > 30 µM (inactive) | > 30 µM (inactive) | NC(=O)c1ccc(N(C(N)=O)c2c(F)cccc2F)nc1-c1ccc(F)cc1F [VX-702]
> 30 µM (inactive) | > 30 µM (inactive) | > 30 µM (inactive) | > 30 µM (inactive) | > 30 µM (inactive) | > 30 µM (inactive) | > 30 µM (inactive) | > 30 µM (inactive) | > 30 µM (inactive) | > 30 µM (inactive) | c1cc(OCCN2CCCCC2)cc(-c2n[nH]c3ccc(-c4nc[nH]n4)cc23)c1 [CC-401]

SMILES | Kd [1] | Kd (Ephrin type-A receptor 4) | Kd [2] | Kd (Scaffold protein ILK) | Kd [3] | Kd (ADP/ATP translocase 3) | Kd [4] | Kd [5] | Kd [6] | Kd [7]
CCc1nc(C(N)=O)c(Nc2ccc(N3CCC(N4CCN(C)CC4)CC3)c(OC)c2)nc1NC1CCOCC1 [GILTERITINIB] | 0.482 µM (active) | > 30 µM (inactive) | > 30 µM (inactive) | > 30 µM (inactive) | 1.47 µM (active) | 0.495 µM | > 30 µM (inactive) | > 30 µM (inactive) | 0.295 µM (active) | > 30 µM (inactive)
Cn1cc(-c2[nH]c3cc(NC(=O)[C@H](N)C4CCCCC4)cc4c3c2C=NNC4=O)cn1 | > 30 µM (inactive) | > 30 µM (inactive) | > 30 µM (inactive) | > 30 µM (inactive) | > 30 µM (inactive) | > 30 µM (inactive) | > 30 µM (inactive) | > 30 µM (inactive) | > 30 µM (inactive) | > 30 µM (inactive)
